{
  "source": "patent US20150299188A1",
  "about": "“HETEROCYCLIC COMPOUND” (priority 2012, published 2015)",
  "system": "FLAP (5-lipoxygenase activating protein)",
  "test": "In vitro binding test: displacement of [3H]-7-chloro-3-(5-((3-fluoropyridin-2-yl)methoxy)-2-methylphenyl)-3,4-dihydroquinazolin-2(1H)-one from Sf9 microsome fractions",
  "parameters": "species or system human and mouse",
  "details": "Sf9 microsome fractions expressing FLAP; 100% = radioligand binding with 10 μM sodium 3-(3-(tert-butylsulfanyl)-1-(4-chlorobenzyl)-5-isopropyl-1H-indol-2-yl)-2,2-dimethylpropanoate, 0% = DMSO; test compound concentration not given",
  "summary_of_the_method": "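Sf9 microsomes expressing human or mouse FLAP (2 μg/mL) preincubated with compound 10 min at room temperature, then 120 nM tritiated quinazolinone ligand added for 60 min; buffer 100 mM Tris-HCl pH 7.5 with NaCl, EDTA, DTT, glycerol, Tween20. Bound ligand filtered and counted by scintillation; 10 μM indole propanoate defines 100% inhibition, DMSO 0%.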",
  "data": [
    {"smiles": "Cc1ccc(OCc2ncccc2F)cc1N1Cc2ccc(C(=O)NC(C)C)cc2NC1=O", "note": "[Example 270, 3-(5-((3-fluoropyridin-2-yl)methoxy)-2-methylphenyl)-N-isopropyl-2-oxo-1,2,3,4-tetrahydroquinazoline-7-carboxamide]", "values": [
      {"measurement": "inhibitory rate (%)", "value": 104, "unit": "%"}
    ]}
  ]
}
